Reference: ChEMBL document CHEMBL1135222, “Anionic cyclophanes as potential reversal agents of muscle relaxants by chemical chelation” (Bioorg Med Chem Lett, 2002)

Assays:
Assay type in all cases: functional, organism-based
Gallus gallus [1] = species on record: Gallus gallus; test: Tested for the reversion of vecuronium-induced block in chick biventer assay
Gallus gallus [2] = species on record: Gallus gallus; test: Concentration that produced 50% reversal of gallamine induced neuromuscular block in the chick biventer assay
Gallus gallus [3] = species on record: Gallus gallus; test: Concentration that produced 50% reversal of pancuronium induced neuromuscular block in the chick biventer assay
Gallus gallus [4] = species on record: Gallus gallus; test: Tested for association constant against gallamine relaxant in chick biventer muscle preparation
Gallus gallus [5] = species on record: Gallus gallus; test: Tested for association constant against pancuronium relaxant in chick biventer muscle preparation

EC50 (Gallus gallus [2]) | EC50 (Gallus gallus [3]) | Structure (SMILES) | EC50 (Gallus gallus [1]) | Ka (Gallus gallus [4]) | Ka (Gallus gallus [5])
 |  | CN(C)C(=O)Oc1cccc([N+](C)(C)C)c1 [NEOSTIGMINE BROMIDE] | 0.028 µM |  | 
104 µM | 40 µM | O=C(O)c1cc2ccc1OCc1ccc3cc(ccc3c1)COc1ccc(cc1C(=O)O)Cc1ccc(c(C(=O)O)c1)OCc1ccc3cc(ccc3c1)COc1ccc(cc1C(=O)O)C2 |  | 13200 M⁻¹ | 10400 M⁻¹
1030 µM | 142 µM | O=C(O)c1cc2ccc1OCCCCCOc1ccc(cc1C(=O)O)Cc1ccc(c(C(=O)O)c1)OCCCCCOc1ccc(cc1C(=O)O)C2 |  | 608 M⁻¹ | 167 M⁻¹
563 µM | 292 µM | O=C(O)c1cc2ccc1OCc1ccc(cc1)COc1ccc(cc1C(=O)O)Cc1ccc(c(C(=O)O)c1)OCc1ccc(cc1)COc1ccc(cc1C(=O)O)C2 |  | 3280 M⁻¹ | 2500 M⁻¹
